Read-outs that look alike come from different tables or passages of the source.
Legend:
[1] = system: P. aeruginosa clinical isolates; experiment: microbe, parasite or virus in culture; format: cell-based, Pseudomonas aeruginosa
Procedure: (§1) The antibacterial activity of the cephalosporins alone was included to ascertain the level of potentiation by the partnered BLI. BLIs were tested at a fixed concentration of 4 μg/ml in all combinations except cefepime-tazobactam, where tazobactam was fixed at a concentration of 8 μg/ml ([38]).
(§2) The in vitro antibacterial activity of the β-lactams alone or in combination with the BLIs was determined in cation-adjusted Mueller-Hinton broth (CAMHB) microdilution assays according to CLSI recommendations ([51]). […] The inocula for the broth microdilution assays were prepared by the broth culture method ([51]).

[2] = system: E. coli DH5α producing individual β-lactamases; experiment: Broth microdilution MIC in engineered strains (BLI fixed at 4 μg/ml); format: cell-based, Escherichia coli
Procedure: The spectrum of antibacterial activity of cefepime-taniborbactam and the breadth of inhibitory activity of this next-generation cyclic boronate BLI were assessed in 34 engineered E. coli strains each overproducing an individual β-lactamase and directly compared to those of the clinically approved agent ceftazidime-avibactam. In this manner, the antibacterial activity of the BL-BLI combinations relative to that of the partnered cephalosporins alone provided a quantitative measure of β-lactam potentiation that directly reflects the levels of inhibition of β-lactamase function achieved by addition of BLI. The BLI concentration was fixed at 4 μg/ml, as described in Materials and Methods.
The isogenic strains were used to establish a spectrum of inhibitory activity against 34 β-lactamases that were engineered into E. coli DH5α cells carrying chromosomal AmpC (ESC-1), a non-ESBL enzyme unable to hydrolyze these third- or fourth-generation cephalosporins. […]. The DNA fragments containing the promoter, the signal sequence, and each β-lactamase-coding gene were synthesized and cloned into pTwist Chlor High Copy in DH5α at Twist Bioscience. The individual expression plasmids along with their GenBank accession numbers are listed in Table S2 in the supplemental material and below. The protein sequences of β-lactamases were obtained from the Beta-Lactamase DataBase (www.bldb.eu) ([47]). Expression of the β-lactamases was confirmed by verifying decreased susceptibility to example test antibiotics that are known substrates of the enzymes. E. coli DH5α carrying pTU501, which expressed only the TEM-1 signal sequence from the bla promoter, was used as a control. The plasmid sequences are available through GenBank (Table S2).
The in vitro antibacterial activity of the β-lactams alone or in combination with the BLIs was determined in cation-adjusted Mueller-Hinton broth (CAMHB) microdilution assays according to CLSI recommendations ([51]). […]. The inocula for the broth microdilution assays were prepared by the broth culture method ([51]). […]

[3] = system: Enterobacterales clinical isolates; experiment: MIC distributions in panels of clinical isolates (MIC50, MIC90, % susceptible); format: cell-based
Procedure: as §1, §2

[4] = system: E. cloacae; experiment: microbe, parasite or virus in culture; format: cell-based
Procedure: as §1, §2

[5] = system: cefepime-nonsusceptible Enterobacterales isolates; design: method as in earlier work; conditions: taniborbactam fixed at 4 μg/ml in combination; cited from earlier work
[6] = Wild-type, basal level Class C and OprD downregulation with RND efflux upregulation (n=14)
[7] = Escherichia coli, ACT-17 (class C)
[8] = Escherichia coli, ACT-C189 (P99 AmpC) (class C)
[9] = Escherichia coli, CMY-2 (class C)
[10] = Escherichia coli, CTX-M-2 (class A)
[11] = Escherichia coli, CTX-M-15 (class A)
[12] = Escherichia coli, GES-5 (class A)
[13] = Escherichia coli, GIM-1 (class B)
[14] = Escherichia coli, IMP-1 (class B)
[15] = Escherichia coli, KPC-2 (class A)
[16] = Escherichia coli, KPC-3(A177E/D179Y) (class A)
[17] = Escherichia coli, KPC-3(D179Y) (class A)
[18] = Escherichia coli, KPC-3(D179Y/T243M) (class A)
[19] = Escherichia coli, KPC-3(T243A) (class A)
[20] = Escherichia coli, KPC-3(V240G) (class A)
[21] = Escherichia coli, KPC-3 (class A)
[22] = Escherichia coli, NDM-1 (class B)
[23] = Escherichia coli, NDM-5 (class B)
[24] = Escherichia coli, NDM-7 (class B)
[25] = Escherichia coli, OXA-48 (class D)
[26] = Escherichia coli, OXA-162 (class D)
[27] = Escherichia coli, OXA-163 (class D)
[28] = Escherichia coli, OXA-181 (class D)
[29] = Escherichia coli, OXA-232 (class D)
[30] = Escherichia coli, PER-1 (class A)
[31] = Escherichia coli, PER-2 (class A)
[32] = Escherichia coli, SHV-5 (class A)
[33] = Escherichia coli, SPM-1 (class B)
[34] = Escherichia coli, TEM-10 (class A)
[35] = Escherichia coli, TEM-24 (class A)
[36] = Escherichia coli, TEM-72 (class A)
[37] = Escherichia coli, VEB-9 (class A)
[38] = Escherichia coli, VIM-1 (class B)
[39] = Escherichia coli, VIM-2 (class B)
[40] = Escherichia coli, VIM-4 (class B)
[41] = Escherichia coli, Vector control
[42] = Enterobacter cloacae, strain 20, p99 AmpC/CTX-M-27/SHV-12/ACT-2/TEM-135, read-out: MIC
[43] = Enterobacter cloacae, strain 116723, p99 AmpC/TEM-1/CTX-M-3, read-out: MIC
[44] = Enterobacter cloacae, strain 138212, p99 AmpC/SHV-71/TEM-1, read-out: MIC
[45] = Enterobacter cloacae, strain 874381, CTX-M-15, read-out: MIC
[46] = Enterobacter cloacae, strain 875134, TEM-1/CTX-M-3/DHA-1, read-out: MIC
[47] = Enterobacter cloacae, strain 891849, TEM-1, read-out: MIC
[48] = Enterobacter cloacae, strain 920937, VIM-1, read-out: MIC
[49] = Enterobacter cloacae, strain 937223, SHV-12/CTX-M-9/ACT-7, read-out: MIC
[50] = Enterobacter cloacae, strain 938772, TEM-OSBL/CTX-M-15/ACT-30, read-out: MIC
[51] = Enterobacter cloacae, strain 976004, OXA-48, read-out: MIC
[52] = Enterobacter cloacae, strain 1249072, TEM-OSBL(b)/VIM-1, read-out: MIC
[53] = Enterobacter cloacae, strain 1365477, TEM-OSBL(b)/VIM-1, read-out: MIC

With `CC(C)(O/N=C(\C(=O)N[C@@H]1C(=O)N2C(C(=O)[O-])=C(C[n+]3ccccc3)CS[C@H]12)c1csc(N)n1)C(=O)O` [CAZ] the “% Susceptible isolates” value [1] was 0%, the “% Susceptible isolates” value ([1]; PDC variants (n = 10)) was 0% and the “% Susceptible isolates” value [1, 6] was 35.7%. The MIC [2, 7] was 8 µg/mL, the MIC [2, 8] was 256 µg/mL and the MIC [2, 9] was 512 µg/mL. For the same molecule, the MIC [2, 10] was 32 µg/mL, the MIC [2, 11] was 128 µg/mL and the MIC [2, 12] was 64 µg/mL. For the same molecule, the MIC [2, 13] was over 128 µg/mL, the MIC [2, 14] was 1020 µg/mL and the MIC [2, 15] was 64 µg/mL. The MIC [2, 16] was 1020 µg/mL, the MIC [2, 17] was 1020 µg/mL and the MIC [2, 18] was 1020 µg/mL. The MIC [2, 19] was 256 µg/mL, the MIC [2, 20] was 1020 µg/mL and the MIC [2, 21] was 512 µg/mL. It also gave an MIC [2, 22] of 1020 µg/mL, an MIC [2, 23] of over 1020 µg/mL and an MIC [2, 24] of over 1020 µg/mL. It also gave an MIC [2, 25] of 1 µg/mL, an MIC [2, 26] of 2 µg/mL and an MIC [2, 27] of 256 µg/mL. The MIC [2, 28] was 1 µg/mL, the MIC [2, 29] was 1 µg/mL and the MIC [2, 30] was 1020 µg/mL. For the same molecule, the MIC [2, 31] was 1020 µg/mL, the MIC [2, 32] was 1020 µg/mL and the MIC [2, 33] was 1020 µg/mL. It also gave an MIC [2, 34] of 1020 µg/mL, an MIC [2, 35] of 1020 µg/mL and an MIC [2, 36] of 1020 µg/mL. The MIC [2, 37] was 1020 µg/mL, the MIC [2, 38] was 1020 µg/mL and the MIC [2, 39] was 128 µg/mL. For the same molecule, the MIC [2, 40] was 256 µg/mL, the MIC [2, 41] was 0.25 µg/mL and the MIC ([2]; Vector control) was 0.5 µg/mL. The “% Susceptible isolates” value ([3]; ESBL (n = 20)) was 15%, the “% Susceptible isolates” value ([3]; KPC (n = 20)) was 0% and the “% Susceptible isolates” value ([3]; MBL (n = 20)) was 0%. The “% Susceptible isolates” value ([3]; Mixed Class A and C (n = 22)) was 9.1%, the “% Susceptible isolates” value ([3]; OXA-48/48-like (n = 20)) was 15% and the MIC [4] was 64 µg/mL. The MIC [4, 42] was at least 256 µg/mL, the MIC [4, 43] was 128 µg/mL and the MIC [4, 44] was 128 µg/mL. It also gave an MIC [4, 45] of at least 256 µg/mL, an MIC [4, 46] of 64 µg/mL and an MIC [4, 47] of 128 µg/mL. The MIC [4, 48] was at least 256 µg/mL, the MIC [4, 49] was at least 256 µg/mL and the MIC [4, 50] was 128 µg/mL. The MIC [4, 51] was 128 µg/mL, the MIC [4, 52] was at least 256 µg/mL and the MIC [4, 53] was at least 256 µg/mL.

With `Cn1c(N)c(NC(=O)NCCN)c[n+]1CC1=C(C(=O)O)N2C(=O)[C@@H](NC(=O)/C(=N\OC(C)(C)C(=O)[O-])c3nsc(N)n3)[C@H]2SC1` [TOL] the “% Susceptible isolates” value ([1]; GES/KPC/VIM carbapenemase producing (n = 17)) was 0%, the “% Susceptible isolates” value ([1]; PDC variants (n = 10)) was 0% and the “% Susceptible isolates” value [1, 6] was 85.7%. For the same molecule, the “% Susceptible isolates” value ([3]; ESBL (n = 20)) was 0%, the “% Susceptible isolates” value ([3]; KPC (n = 20)) was 0% and the “% Susceptible isolates” value ([3]; MBL (n = 20)) was 0%. The “% Susceptible isolates” value ([3]; Mixed Class A and C (n = 22)) was 0%, the “% Susceptible isolates” value ([3]; OXA-48/48-like (n = 20)) was 5% and the MIC [4, 42] was 32 µg/mL. For the same molecule, the MIC [4, 43] was 32 µg/mL, the MIC [4, 44] was 32 µg/mL and the MIC ([4]; Enterobacter cloacae, strain 847426, KPC, read-out: MIC) was at least 256 µg/mL. The MIC [4, 45] was at least 256 µg/mL, the MIC [4, 46] was 64 µg/mL and the MIC [4, 47] was 32 µg/mL. For the same molecule, the MIC [4, 48] was at least 256 µg/mL, the MIC [4, 49] was 32 µg/mL and the MIC [4, 50] was 128 µg/mL. For the same molecule, the MIC [4, 51] was at least 256 µg/mL, the MIC [4, 52] was at least 256 µg/mL and the MIC [4, 53] was at least 256 µg/mL. It also gave an MIC ([4]; Enterobacter cloacae, strain CDC-0053, KPC-3/TEM-1, read-out: MIC) of 128 µg/mL and an MIC ([4]; Enterobacter cloacae, strain CDC-0163, KPC/CTX-M-1/ACT/MIR, read-out: MIC) of 128 µg/mL.

In the case of `CO/N=C(\C(=O)N[C@@H]1C(=O)N2C(C(=O)[O-])=C(C[N+]3(C)CCCC3)CS[C@H]12)c1csc(N)n1` [FEP], the MIC90 [5] is listed as over 128 µg/mL, the MIC [2, 7] is listed as 4 µg/mL and the MIC [2, 8] is listed as 8 µg/mL. It also gave an MIC [2, 9] of 2 µg/mL, an MIC [2, 10] of 128 µg/mL and an MIC [2, 11] of 128 µg/mL. It also gave an MIC [2, 12] of 4 µg/mL, an MIC [2, 13] of 4 µg/mL and an MIC [2, 14] of 64 µg/mL. It also gave an MIC [2, 15] of 64 µg/mL, an MIC [2, 16] of 16 µg/mL and an MIC [2, 17] of 32 µg/mL. For the same molecule, the MIC [2, 18] was 16 µg/mL, the MIC [2, 19] was 64 µg/mL and the MIC [2, 20] was 256 µg/mL. For the same molecule, the MIC [2, 21] was 128 µg/mL, the MIC [2, 22] was 256 µg/mL and the MIC [2, 23] was 512 µg/mL. For the same molecule, the MIC [2, 24] was 512 µg/mL, the MIC [2, 25] was 2 µg/mL and the MIC [2, 26] was 8 µg/mL. The MIC [2, 27] was 128 µg/mL, the MIC [2, 28] was 2 µg/mL and the MIC [2, 29] was 2 µg/mL. For the same molecule, the MIC [2, 30] was 512 µg/mL, the MIC [2, 31] was 256 µg/mL and the MIC [2, 32] was 128 µg/mL. The MIC [2, 33] was 128 µg/mL, the MIC [2, 34] was 8 µg/mL and the MIC [2, 35] was 2 µg/mL. For the same molecule, the MIC [2, 36] was 32 µg/mL, the MIC [2, 37] was 128 µg/mL and the MIC [2, 38] was 128 µg/mL. For the same molecule, the MIC [2, 39] was 16 µg/mL, the MIC [2, 40] was 32 µg/mL and the MIC [2, 41] was 0.12 µg/mL.

Source: PMC7038240 (Antimicrobial Agents and Chemotherapy, 2020)
